According to PubChem BioAssay (NCI):
“And” between values parts separate entries of the source, which are not always exact repeats. Identical values can stand only once.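 Where inhibition never reached the appropriate level, the endpoint shown equals the highest concentration tested. Otherwise, values were interpolated linearly from a five-concentration, 48-hour dose response in 96-well plates. At the GI50, growth is halved. Definition used: TGI = concentration required for complete inhibition of growth.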

Legend:
Test in all cases: growth of human tumour cells (NCI), 48 h
HS 578T breast = tested on: HS 578T breast
SW-620 colon = tested on: SW-620 colon
ACHN renal = tested on: ACHN renal
A549 NSCLC = tested on: A549 NSCLC
NCI/ADR-RES ovarian = tested on: NCI/ADR-RES ovarian
NCI-H522 lung = tested on: NCI-H522 lung
SNB-19 CNS = tested on: SNB-19 CNS
M14 melanoma = tested on: M14 melanoma
HL-60(TB) leukemia = tested on: HL-60(TB) leukemia
CAKI-1 renal = tested on: CAKI-1 renal
HOP-92 NSCLC = tested on: HOP-92 NSCLC
SK-MEL-28 melanoma = tested on: SK-MEL-28 melanoma
HCT-116 colon = tested on: HCT-116 colon
EKVX NSCLC = tested on: EKVX NSCLC
IGROV1 ovarian = tested on: IGROV1 ovarian
DU-145 prostate = tested on: DU-145 prostate
NCI-H460 lung = tested on: NCI-H460 lung
SR leukemia = tested on: SR leukemia
COLO 205 colon = tested on: COLO 205 colon
OVCAR-3 ovarian = tested on: OVCAR-3 ovarian
NCI-H226 lung = tested on: NCI-H226 lung
OVCAR-5 ovarian = tested on: OVCAR-5 ovarian
TK-10 renal = tested on: TK-10 renal
HT29 colon = tested on: HT29 colon
HCC-2998 colon = tested on: HCC-2998 colon
SNB-75 CNS = tested on: SNB-75 CNS
SF-539 CNS = tested on: SF-539 CNS
U251 CNS = tested on: U251 CNS
MOLT-4 leukemia = tested on: MOLT-4 leukemia
KM12 colon = tested on: KM12 colon
UACC-257 melanoma = tested on: UACC-257 melanoma
PC-3 prostate = tested on: PC-3 prostate
MCF7 breast = tested on: MCF7 breast
A498 renal = tested on: A498 renal
SK-MEL-2 melanoma = tested on: SK-MEL-2 melanoma
MALME-3M melanoma = tested on: MALME-3M melanoma
BT-549 breast = tested on: BT-549 breast
OVCAR-8 ovarian = tested on: OVCAR-8 ovarian
OVCAR-4 ovarian = tested on: OVCAR-4 ovarian
UACC-62 melanoma = tested on: UACC-62 melanoma
HCT-15 colon = tested on: HCT-15 colon
SN12C renal = tested on: SN12C renal
MDA-MB-435 = tested on: MDA-MB-435
SF-268 CNS = tested on: SF-268 CNS
786-0 renal = tested on: 786-0 renal
T-47D breast = tested on: T-47D breast
RXF 393 renal = tested on: RXF 393 renal
SK-OV-3 ovarian = tested on: SK-OV-3 ovarian
LOX IMVI melanoma = tested on: LOX IMVI melanoma
NCI-H23 lung = tested on: NCI-H23 lung
K-562 leukemia = tested on: K-562 leukemia
RPMI-8226 leukemia = tested on: RPMI-8226 leukemia
MDA-MB-231 breast = tested on: MDA-MB-231 breast
SF-295 CNS = tested on: SF-295 CNS
SK-MEL-5 melanoma = tested on: SK-MEL-5 melanoma
HOP-62 NSCLC = tested on: HOP-62 NSCLC
CCRF-CEM leukemia = tested on: CCRF-CEM leukemia
UO-31 renal = tested on: UO-31 renal

## Cn1cc(-c2cc3c(Nc4ccc(CC(=O)Nc5cc(C(C)(C)C)on5)cc4)ncnc3[nH]2)cn1
HS 578T breast
  GI50: 420 nM and 276 nM
  TGI: 1720 nM and 1560 nM
SW-620 colon
  GI50: 871 nM and 654 nM
  TGI: 2750 nM and 5730 nM
ACHN renal
  GI50: 1940 nM and 1710 nM
  TGI: 7360 nM and 6400 nM
A549 NSCLC
  GI50: 2420 nM and 2840 nM
  TGI: 8760 nM and 10500 nM
NCI/ADR-RES ovarian
  GI50: 16100 nM and 13100 nM
  TGI: > 100000 nM
NCI-H522 lung
  GI50: 469 nM and 528 nM
  TGI: 3330 nM and 4480 nM
SNB-19 CNS
  GI50: 492 nM and 399 nM
  TGI: 5310 nM and 8400 nM
M14 melanoma
  GI50: 961 nM and 690 nM
  TGI: 3020 nM and 2300 nM
HL-60(TB) leukemia
  GI50: 1980 nM and 1580 nM
  TGI: 6630 nM and 5470 nM
CAKI-1 renal
  GI50: 1250 nM and 1100 nM
  TGI: 7090 nM and 6930 nM
HOP-92 NSCLC
  GI50: 1420 nM and 536 nM
  TGI: 11800 nM and 4390 nM
SK-MEL-28 melanoma
  GI50: 804 nM and 508 nM
  TGI: 3580 nM and 3000 nM
HCT-116 colon
  GI50: 680 nM and 337 nM
  TGI: 4860 nM and 1990 nM
EKVX NSCLC
  GI50: 1660 nM and 1810 nM
  TGI: 5010 nM and 5310 nM
IGROV1 ovarian
  GI50: 1100 nM and 948 nM
  TGI: 5840 nM and 5240 nM
DU-145 prostate
  GI50: 830 nM and 491 nM
  TGI: 3840 nM and 2890 nM
NCI-H460 lung
  GI50: 1040 nM and 1260 nM
  TGI: 3650 nM and 6220 nM
SR leukemia
  GI50: 328 nM and 324 nM
  TGI: > 53700 nM
COLO 205 colon
  GI50: 364 nM and 354 nM
  TGI: 1210 nM and 1650 nM
OVCAR-3 ovarian
  GI50: 496 nM and 360 nM
  TGI: 2480 nM and 2540 nM
NCI-H226 lung
  GI50: 899 nM and 540 nM
  TGI: 4180 nM and 4100 nM
OVCAR-5 ovarian
  GI50: 1300 nM and 1080 nM
  TGI: 7180 nM and 6620 nM
TK-10 renal
  GI50: 2740 nM and 2440 nM
  TGI: 8910 nM and 7400 nM
HT29 colon
  GI50: 1100 nM and 1110 nM
  TGI: 6950 nM and 9630 nM
HCC-2998 colon
  GI50: 1340 nM and 652 nM
  TGI: 7500 nM and 4820 nM
SNB-75 CNS
  GI50: 655 nM and 133 nM
  TGI: 1780 nM and 2470 nM
SF-539 CNS
  GI50: 425 nM and 265 nM
  TGI: 1700 nM and 1630 nM
U251 CNS
  GI50: 586 nM and 380 nM
  TGI: 5840 nM and 6410 nM
MOLT-4 leukemia
  GI50: 401 nM and 324 nM
  TGI: 11400 nM and 2380 nM
KM12 colon
  GI50: 59.6 nM and 46.8 nM
  TGI: 2390 nM and 1820 nM
UACC-257 melanoma
  GI50: 2040 nM
  TGI: 6960 nM and 6990 nM
PC-3 prostate
  GI50: 1590 nM and 612 nM
  TGI: 11300 nM and 3580 nM
MCF7 breast
  GI50: 352 nM and 259 nM
  TGI: 10300 nM and 4010 nM
A498 renal
  GI50: 692 nM and 1070 nM
  TGI: 1810 nM and 3030 nM
SK-MEL-2 melanoma
  GI50: 835 nM and 943 nM
  TGI: 2800 nM and 3730 nM
MALME-3M melanoma
  GI50: 615 nM and 354 nM
  TGI: 2360 nM and 1750 nM
BT-549 breast
  GI50: 925 nM and 538 nM
  TGI: 4120 nM and 3350 nM
OVCAR-8 ovarian
  GI50: 893 nM and 490 nM
  TGI: 5060 nM and 4540 nM
OVCAR-4 ovarian
  GI50: 592 nM and 547 nM
  TGI: 4000 nM and 5170 nM
UACC-62 melanoma
  GI50: 583 nM and 455 nM
  TGI: 1710 nM and 1900 nM
HCT-15 colon
  GI50: 3260 nM and 2910 nM
  TGI: 13800 nM and 10300 nM
SN12C renal
  GI50: 671 nM and 471 nM
  TGI: 4050 nM and 4150 nM
MDA-MB-435
  GI50: 845 nM and 944 nM
  TGI: 2950 nM and 4290 nM
SF-268 CNS
  GI50: 444 nM and 348 nM
  TGI: 1670 nM and 1180 nM
786-0 renal
  GI50: 995 nM and 536 nM
  TGI: 5050 nM and 4710 nM
T-47D breast
  GI50: 315 nM and 289 nM
  TGI: 6120 nM and 2190 nM
RXF 393 renal
  GI50: 723 nM and 461 nM
  TGI: 1880 nM and 1480 nM
SK-OV-3 ovarian
  GI50: 1430 nM and 2020 nM
  TGI: 6010 nM and 6840 nM
LOX IMVI melanoma
  GI50: 870 nM and 548 nM
  TGI: 6310 nM and 3630 nM
NCI-H23 lung
  GI50: 811 nM and 449 nM
  TGI: 3490 nM and 2510 nM
K-562 leukemia
  GI50: 1210 nM and 596 nM
  TGI: > 100000 nM and 11200 nM
RPMI-8226 leukemia
  GI50: 2030 nM and 1070 nM
  TGI: 5410 nM and 3800 nM
MDA-MB-231 breast
  GI50: 797 nM and 786 nM
  TGI: 5170 nM and 8350 nM
SF-295 CNS
  GI50: 1640 nM and 1320 nM
  TGI: 6210 nM and 6200 nM
SK-MEL-5 melanoma
  GI50: 1400 nM and 1310 nM
  TGI: 4770 nM and 4430 nM
HOP-62 NSCLC
  GI50: 876 nM and 444 nM
  TGI: 4970 nM and 4580 nM
CCRF-CEM leukemia
  GI50: 395 nM and 302 nM
UO-31 renal
  GI50: 2430 nM and 2330 nM
  TGI: 7040 nM and 6580 nM
